# pIC50, pKi: −log10 of the molar value.
# Key:
# Coagulation factor X = Coagulation factor X (Homo sapiens, UniProt P00742); assay: Inhibitory activity against coagulation factor Xa
# [1] = Percent compound remaining after 2 hr incubation with human S9 liver fraction; format: ADME, subcellular; details: read-out: Activity
# Serine protease 1 = Serine protease 1 (Homo sapiens, UniProt P07477); assay: […]
# Prothrombin [2] = target: T1, Prothrombin (Homo sapiens, UniProt P00734); assay: Concentration required for 50% inhibition of dilute prothrombin time; format: functional
# [3] = target: Tissue-type plasminogen activator (Homo sapiens, UniProt P00750); assay: inhibitory activity against human tissue plasminogen activator
# Prothrombin [4] = target: T1, Prothrombin; assay: Inhibitory activity against coagulation factor II (thrombin)
# Prothrombin [5] = target: T1, Prothrombin; assay: Concentration required to double plasma clotting time of prothrombin time; format: functional, cell-free
# Sequence of Tissue-type plasminogen activator (P00750 whole entry): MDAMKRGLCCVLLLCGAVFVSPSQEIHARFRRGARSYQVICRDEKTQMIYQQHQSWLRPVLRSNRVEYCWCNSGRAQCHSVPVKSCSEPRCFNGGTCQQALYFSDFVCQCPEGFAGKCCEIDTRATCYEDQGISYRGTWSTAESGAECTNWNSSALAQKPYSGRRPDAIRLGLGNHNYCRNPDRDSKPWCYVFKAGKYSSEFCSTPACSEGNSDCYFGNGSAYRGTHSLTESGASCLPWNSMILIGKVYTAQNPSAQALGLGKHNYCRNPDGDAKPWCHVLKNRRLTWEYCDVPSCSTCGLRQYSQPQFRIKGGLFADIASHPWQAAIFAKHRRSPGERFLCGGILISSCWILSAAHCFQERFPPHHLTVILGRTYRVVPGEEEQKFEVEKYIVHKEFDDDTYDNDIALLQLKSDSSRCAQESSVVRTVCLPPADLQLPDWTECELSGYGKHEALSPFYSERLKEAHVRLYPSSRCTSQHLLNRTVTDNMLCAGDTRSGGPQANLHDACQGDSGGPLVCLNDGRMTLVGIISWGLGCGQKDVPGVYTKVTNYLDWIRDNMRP
# Sequence of Coagulation factor X (P00742 41-179 limits assumed): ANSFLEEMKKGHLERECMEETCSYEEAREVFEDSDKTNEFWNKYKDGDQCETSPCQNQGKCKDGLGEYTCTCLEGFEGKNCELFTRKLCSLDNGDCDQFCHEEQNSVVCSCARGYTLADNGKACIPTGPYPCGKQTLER
# Sequence of Coagulation factor X (P00742 235-488 limits assumed): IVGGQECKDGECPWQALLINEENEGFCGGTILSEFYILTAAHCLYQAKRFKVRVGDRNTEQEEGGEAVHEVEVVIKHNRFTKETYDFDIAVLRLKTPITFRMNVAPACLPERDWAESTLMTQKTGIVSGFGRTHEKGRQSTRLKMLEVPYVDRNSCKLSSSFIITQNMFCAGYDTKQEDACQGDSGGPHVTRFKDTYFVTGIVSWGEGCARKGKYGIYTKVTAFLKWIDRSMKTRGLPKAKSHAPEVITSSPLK
# Sequence of Serine protease 1 (P07477 whole entry): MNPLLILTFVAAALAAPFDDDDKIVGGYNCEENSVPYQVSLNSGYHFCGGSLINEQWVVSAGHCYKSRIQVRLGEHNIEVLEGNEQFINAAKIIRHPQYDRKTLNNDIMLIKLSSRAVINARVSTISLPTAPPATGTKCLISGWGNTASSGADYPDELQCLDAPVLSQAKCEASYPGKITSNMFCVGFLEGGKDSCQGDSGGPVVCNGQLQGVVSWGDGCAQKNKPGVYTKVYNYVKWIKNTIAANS
SMILES,pKi (Coagulation factor X),remaining at 2 h [1],pKi (Serine protease 1),pIC50 (Prothrombin [2]),pKi [3],pKi (Prothrombin [4]),also measured
COc1cccc(CCn2c(C(=O)NC3CCN(C(C)C)CC3)cc3ccccc32)c1,< 5.00,–,–,–,–,–,–
CC(C)N1CCC(NC(=O)c2cc3ccccc3n2Cc2cc(-c3ccc(Cl)s3)on2)CC1,–,94%,< 4.00,–,–,–,–
CC(C)N1CCC(NC(=O)c2cc3ccccc3n2Cc2cnc(-c3ccc(Cl)cc3)s2)CC1,5.56,–,–,–,–,–,–
CC(C)N1CCC(NC(=O)c2cc3ccccc3n2CC(=O)Nc2ccc(Cl)cn2)CC1,–,95%,< 4.00,7.70,< 4.00,< 5.00,–
CC(C)N1CCC(NC(=O)c2cc3ccccc3n2Cc2cc3ccc(Cl)cc3s2)CC1,–,98%,< 4.00,6.05,< 4.00,5.04,Concentration (Prothrombin [5]): 14.1 µM
CC(C)N1CCC(NC(=O)c2cc3ccccc3n2CC(=O)Nc2ccc(Cl)cc2)CC1,–,67%,< 4.00,7.70,< 4.00,< 5.00,–

# Continued, in another order:
pKi (Coagulation factor X),SMILES,remaining at 2 h [1],pKi (Serine protease 1),pIC50 (Prothrombin [2]),pKi [3],pKi (Prothrombin [4]),also measured
6.54,CC(C)N1CCC(NC(=O)c2cc3ccccc3n2CC(=O)Nc2cccc(Cl)c2)CC1,–,–,–,–,–,–
5.61,COc1cccc(-n2c(C(=O)NC3CCN(C(C)C)CC3)cc3ccccc32)c1,–,–,–,–,–,–
5.60,CC(C)N1CCC(NC(=O)c2cc3ccccc3n2Cc2ccc(Cl)cc2)CC1,–,–,–,–,–,–
5.05,CC(C)N1CCC(NC(=O)c2cc3ccccc3n2-c2cccc(Cl)c2)CC1,–,–,–,–,–,–
